We go through 17 compounds from ChEMBL document CHEMBL1139911, “4-substituted indazoles as new inhibitors of neuronal nitric oxide synthase” (Bioorg Med Chem Lett, 2007).

The subject of assay [1] is Mus musculus. The assay is described as follows: Antinociceptive effect in acetic acid-induced mouse assessed as number of writhes for 10 mins at 25 mg/kg, ip. The class given is functional. Conditions: route intraperitoneal.
Assay [2] relates to Mus musculus. The assay is described as follows: Antinociceptive effect in mouse assessed as number of writhes for 10 mins at 50 mg/kg, ip. The assay is classed as functional. Conditions: route intraperitoneal.
For assay [3], the system named is Mus musculus. The assay is described as follows: Reversal of antinociceptive effect in L-arginine pretreated mouse assessed as number or writhes for 10 mins at 50 mg/kg, ip. The class given is functional. The settings on record: route intraperitoneal.
In assay [4] the test system is Mus musculus. The assay is described as follows: Antinociceptive effect in acetic acid-induced mouse assessed as number of writhes for 10 mins at 50 mg/kg, ip. The class given is functional. Conditions: route intraperitoneal.
Another assay has as its target Nitric oxide synthase 1 (Rattus norvegicus, UniProt P29476). The assay is described as follows: Inhibition of rat neuronal NOS.
For assay [5], the system named is Mus musculus. The assay is described as follows: Antinociceptive effect in acetic acid-induced mouse assessed as number of writhes for 10 mins at 12.5 mg/kg, ip. The assay is classed as functional. Conditions: route intraperitoneal.

As a reminder, the IC50 is the concentration that gives 50% inhibition. Low values mean inhibition by little substance, high ones a need for much substance.

Chain of Nitric oxide synthase 1 (P29476 whole entry): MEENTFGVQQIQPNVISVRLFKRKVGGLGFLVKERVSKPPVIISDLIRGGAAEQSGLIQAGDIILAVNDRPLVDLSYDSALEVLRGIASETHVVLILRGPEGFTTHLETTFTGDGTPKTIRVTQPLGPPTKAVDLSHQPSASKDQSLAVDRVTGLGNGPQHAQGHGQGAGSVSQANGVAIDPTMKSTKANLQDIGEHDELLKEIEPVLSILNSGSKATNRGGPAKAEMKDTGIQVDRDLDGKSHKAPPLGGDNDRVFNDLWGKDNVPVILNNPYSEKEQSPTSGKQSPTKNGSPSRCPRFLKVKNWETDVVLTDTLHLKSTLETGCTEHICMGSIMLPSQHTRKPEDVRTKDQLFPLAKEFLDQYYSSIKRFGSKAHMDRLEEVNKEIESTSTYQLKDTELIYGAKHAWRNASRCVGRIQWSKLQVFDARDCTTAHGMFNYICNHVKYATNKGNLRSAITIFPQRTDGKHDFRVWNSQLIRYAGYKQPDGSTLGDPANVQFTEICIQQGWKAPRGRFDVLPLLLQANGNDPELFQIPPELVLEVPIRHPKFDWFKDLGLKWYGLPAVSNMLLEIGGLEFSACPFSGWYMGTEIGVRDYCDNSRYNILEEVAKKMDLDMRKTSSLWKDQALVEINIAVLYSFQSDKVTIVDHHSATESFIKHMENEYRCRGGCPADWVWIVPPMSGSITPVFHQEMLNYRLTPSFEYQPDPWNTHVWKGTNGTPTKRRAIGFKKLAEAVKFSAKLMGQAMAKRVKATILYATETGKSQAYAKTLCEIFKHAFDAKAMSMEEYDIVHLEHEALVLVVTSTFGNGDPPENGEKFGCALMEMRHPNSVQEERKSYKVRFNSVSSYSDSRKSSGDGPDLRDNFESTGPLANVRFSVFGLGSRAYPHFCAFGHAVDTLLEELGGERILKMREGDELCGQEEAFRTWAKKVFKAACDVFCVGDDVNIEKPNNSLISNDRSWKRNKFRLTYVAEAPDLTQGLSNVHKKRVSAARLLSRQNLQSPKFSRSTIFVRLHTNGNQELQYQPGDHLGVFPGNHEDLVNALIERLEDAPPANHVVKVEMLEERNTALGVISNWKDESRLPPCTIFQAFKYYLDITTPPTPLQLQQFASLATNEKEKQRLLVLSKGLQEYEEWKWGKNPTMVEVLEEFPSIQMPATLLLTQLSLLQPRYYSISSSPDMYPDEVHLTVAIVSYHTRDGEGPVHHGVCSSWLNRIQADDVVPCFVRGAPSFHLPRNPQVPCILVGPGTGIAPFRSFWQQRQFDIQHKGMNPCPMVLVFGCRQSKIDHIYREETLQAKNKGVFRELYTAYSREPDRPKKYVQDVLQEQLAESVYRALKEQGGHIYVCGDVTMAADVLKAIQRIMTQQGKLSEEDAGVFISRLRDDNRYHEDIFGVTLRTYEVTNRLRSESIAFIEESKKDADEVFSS

As to `Brc1cccc2[nH]ncc12`, the Activity in the assay on Mus musculus [1] is on record as 8.8; in the assay on Mus musculus [2] it was 10.8; with Mus musculus [3], 24.3; in the assay on Mus musculus [4], 9.3; in the assay with Mus musculus [5] it was 11. On Nitric oxide synthase 1, this compound returned an IC50 of 2.4 µM.

`Ic1ccc2[nH]ncc2c1` displayed an IC50 on Nitric oxide synthase 1 of 37 µM.

Take `N=C(N)NCCC[C@H](N)C(=O)O` [ARGININE]: in the assay with Mus musculus [2], the Activity was 22.9.

For the compound `Clc1cccc2cn[nH]c12`, the Activity was determined as 12.9 in the assay on Mus musculus [1]; 12.1 with Mus musculus [2]; 23 in the assay on Mus musculus [3]; 7.9 with Mus musculus [4]; 15 with Mus musculus [5]. Moreover, the concentration for half-maximal inhibition (IC50) against Nitric oxide synthase 1 was 4.2 µM.

`O=[N+]([O-])c1cccc2[nH]ncc12`: the Activity is on record as 9.9 with Mus musculus [1]; 11.8 in the assay with Mus musculus [2]; 23.8 in the assay on Mus musculus [3]; 9.3 in the assay on Mus musculus [4]; 18 in the assay on Mus musculus [5].

For the compound `Brc1cccc2cn[nH]c12`, the midpoint of inhibition on Nitric oxide synthase 1, the IC50, lay at 14.3 µM.

Consider `Ic1cccc2[nH]ncc12`, for which, on Nitric oxide synthase 1, it took 17 µM to reach half-maximal inhibition (IC50).

As for `CC(=O)Oc1ccccc1C(=O)O` [ASPIRIN], the Activity in the assay on Mus musculus [5] is 7.6.

Compound `Brc1ccc2[nH]ncc2c1` returned an IC50 against Nitric oxide synthase 1 of 72 µM.

Consider `Clc1ccc2cn[nH]c2c1`, for which inhibition at Nitric oxide synthase 1 was half-maximal at 22 µM (IC50).

In the case of `Fc1ccc2cn[nH]c2c1`, the IC50 on Nitric oxide synthase 1 is more than 100 µM.

At Nitric oxide synthase 1, `Clc1cccc2[nH]ncc12` showed an IC50 of 44.3 µM.

`Fc1cccc2[nH]ncc12` returned an IC50 against Nitric oxide synthase 1 of more than 100 µM.

In turn, `Fc1ccc2[nH]ncc2c1` yielded an IC50 on Nitric oxide synthase 1 of more than 100 µM.

`Brc1ccc2cn[nH]c2c1` displayed an IC50 at Nitric oxide synthase 1 of 4.3 µM.

With `O=[N+]([O-])c1cccc2cn[nH]c12` [7-NITROINDAZOLE], the Activity in the assay with Mus musculus [4] is recorded as 6.8.

In turn, `Clc1ccc2[nH]ncc2c1` registered an IC50 against Nitric oxide synthase 1 of 59.3 µM.
